From patent US6540999B1, “Immunomodulatory methods using Lewisx oligosacchardies” (President and Fellows of Harvard College, priority 1996, dated 2003)

What was measured:
[1] = tested on: IgE response; design: species or system mice; conditions: mouse, in vivo
[2] = tested on: IgE response; design: species or system mice; conditions: mouse, in vivo; remark: listed apart in the source
[3] = tested on: IgE response; assay: Serum IgE titers after intranasal administration, HSA as antigen; format: in vivo; conditions: coadministration with HSA, mice, FIG. 4A
[4] = tested on: Human PBMCs; assay: IL-10 production by human PBMCs from allergic or cancer patients (ELISA); format: cell-based; design: unit not given here; conditions: 24 hours; LPS 20 μg/ml, HSA and conjugates 100 μg/ml
Excerpt: (§1) Human PBMCs were obtained from: 1) an individual who was allergic to pollen; 2) an individual suffering from lung carcinoma and 3) an individual suffering from colon carcinoma.

[5] = tested on: Granuloma macrophages; format: cell-based, C57BL/6 mice
[6] = tested on: naive splenocytes, T cell, B cell and non-T, non-B spleen cell populations; assay: IL-10 production in vitro by spleen cell subpopulations; format: cell-based, CBA mice; design: unit not given here
Excerpt: (§2) In this example, the types of cells responsive to the multimeric sugar conjugates, and the types of cytokines produced, either in vitro or in vivo, were investigated further. For the in vitro studies, naive splenocytes were isolated from CBA mice and fractionated into T cell, B cell and non-T, non-B spleen cell populations. B cell populations were defined by expression of the B220 surface marker (i.e., B220^+ cells). T cell populations were defined by expression of CD5 or Thy surface markers (i.e., CD5^+ or Thy+).

[7] = tested on: Human PBMCs; assay: Proliferation of human PBMCs from allergic or cancer patients (3H-thymidine uptake); format: cell-based; conditions: 3H-thymidine uptake at 90 hours; LPS 20 μg/ml, HSA and conjugates 100 μg/ml
Excerpt: as §1

[8] = tested on: naive splenocytes, T cell, B cell and non-T, non-B spleen cell populations; assay: IFN-γ production in vitro by spleen cell subpopulations; format: cell-based, CBA mice; design: unit not given here
Excerpt: as §2

[9] = naive CBA splenocytes, unfractionated

Molecule: CC(=O)N[C@H]1[C@H](O[C@H]2[C@@H](O)[C@@H](CO)O[C@@H](O[C@H]3[C@H](O)[C@@H](O)C(O)O[C@@H]3CO)[C@@H]2O)O[C@H](CO)[C@@H](O[C@@H]2O[C@H](CO)[C@H](O)[C@H](O)[C@H]2O)[C@@H]1O (mixture of isomers) [free LNT, lacto-N-neotetraose]
- lowering of the total IgE response compared to administration of PLA2 alone [1]: not
- inhibition of the SEA-specific IgE response (in words) [2]: significantly less effective than free LNFPIII
- inhibition of the total IgE response to SEA (in words) [2]: had a greater inhibitory effect

Molecule: lacto-N-fucopentaose III [free LNFPIII]
- lowering of the total IgE response compared to administration of PLA2 alone [1]: approximately 70%
- reduction of the PLA2-specific IgE response [1]: approximately 40%
- reduction in the levels of total IgE as compared to administration of HSA alone [3]: approximately 60%
- inhibition of the SEA-specific IgE response (in words) [2]: marked decrease in the antigen-specific IgE response
- inhibition of the total IgE response to SEA (in words) [2]: only marginally inhibited

Molecule: lipopolysaccharide [LPS]
- IL-10, COLON CARCINOMA [4]: 8221
- IL-10, LUNG CARCINOMA [4]: 1400
- IL-10, POLLEN ALLERGIC [4]: 906
- IL-10 LEVEL 24 HR [5]: 7864 pg/mL
- IL-10 LEVEL 48 HR [5]: 6559 pg/mL
- IL-10 LEVEL 72 HR [5]: 4555 pg/mL
- IL-10, B cells (B220+) ([6]; B220+ cells): 552
- IL-10, Non-B (B220−) ([6]; B220− cells): 320
- IL-10, T cells (CD5+) ([6]; CD5+ cells): 264
- IL-10, Non-T (CD5−) ([6]; CD5− cells): 430
- IL-10, T cells (Thy+) ([6]; Thy+ cells): 72
- IL-10, Non-T (Thy−) ([6]; Thy− cells): 430
- IL-10, Total Spleen [6, 9]: 535
- CPM, COLON CARCINOMA [7]: 222 CPM
- CPM, LUNG CARCINOMA [7]: 232 CPM
- CPM, POLLEN ALLERGIC [7]: 1946 CPM
- IFN-γ, B cells (B220+) ([8]; B220+ cells): 0
- IFN-γ, Non-B (B220−) ([8]; B220− cells): 321
- IFN-γ, T cells (CD5+) ([8]; CD5+ cells): 403
- IFN-γ, Non-T (CD5−) ([8]; CD5− cells): 0
- IFN-γ, T cells (Thy+) ([8]; Thy+ cells): 617
- IFN-γ, Non-T (Thy−) ([8]; Thy− cells): 0
- IFN-γ, Total Spleen [8, 9]: 47

Molecule: phospholipase A2 [PLA2]
- PLA2-specific IgE response elicited (in words) [1]: elicits a strong PLA2-specific IgE response
- total IgE response elicited (in words) [1]: elicits a strong total IgE response
